Where two headings read alike, the source gives them in different places.

In experiment [1] the test system is HCV genotype 1b replicon. Briefly: HCV replicon assay, genotype 1b replicon EC50. Type of experiment: cell-based, Hepatitis C virus. The note with it: Hepatitis C virus, read-out: EC50 [gt-1b]. In a few lines: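 Stable neomycin-selected genotype 1b replicon cells, some carrying luciferase:Neo^r fusion, plated without G418 with a compound dilution series and incubated 24-48 h. Read-out was RNA (^32P-probe protection or TaqMan, normalized to cyclophilin A) or luciferase activity. EC50 from four-parameter fit as percent of DMSO control.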

The target of experiment [2] is HCV NS3/4A protease genotype 1b (Hepatitis C virus genotype 1b, UniProt P26663). The experiment can be described thus: HCV NS3/4A protease time-resolved fluorescence (TRF) assay, Ki against genotype 1b. The experiment is classed as biochemical. In a few lines:
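Time-resolved fluorescence readout of NS3/4A cleavage of 25 nM europium-labelled peptide over 2.5 h at room temperature, enzyme levels set for signal/background 10–30 (0.2, 0.4, 0.025 nM for 1b, A156T, 3a). Ki by IC50=Ki(1+[S]/KM).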

The mark [3] stands for this setting: IC50 [gt-1b] (nM), NS3/4A genotype 1b, enzyme 0.2 nM.
Setting [4] is: IC50 [gt-1b] (nM), NS3/4A genotype 1b, enzyme 0.2 nM, K+ salt.
Setting [5] is: IC50 [gt-1b], NS3/4A protease TRF assay, genotype 1b enzyme 0.2 nM.

On to `COCC(C)(C)OC(=O)N[C@H]1CCCCC/C=C\[C@@H]2C[C@@]2(C(=O)NS(=O)(=O)C2(C)CC2)NC(=O)[C@@H]2C[C@@]3(CN2C1=O)CC(F)(F)c1c(c(C(C)C)nc2ccc(OC)cc12)O3` [Example 242, 1-methoxy-2-methylpropan-2-yl [(2S,6S,12Z,13aS,14aR,16aS)-1′,1′-difluoro-9′-methoxy-14a-{[(1-methylcyclopropyl)sulfonyl]carbamoyl}-5,16-dioxo-5′-(propan-2-yl)-1,1′,2′,5,6,7,8,9,10,11,13a,14,14a,15,16,16a-hexadecahydrospiro[cyclopropa[e]pyrrolo[1,2-a][1,4]diazacyclopentadecine-2,3′-pyrano[2,3-c]quinolin]-6-yl]carbamate], for which the EC50 in experiment [1] (genotype 1b replicon) amounted to 3.38 nM. Further, the IC50 in experiment [2] (setting [3]) came out at 0.022 nM.
For `Cc1nc2ccc(Cl)cc2c2c1O[C@]1(CC2)C[C@H]2C(=O)N[C@]3(C(=O)NS(=O)(=O)C4(C)CC4)C[C@H]3/C=C\CCCCC[C@H](NC(=O)OC(C)C)C(=O)N2C1` [Example 183, propan-2-yl [(2R,6S,12Z,13aS,14aR,16aS)-9′-chloro-5′-methyl-14a-{[(1-methylcyclopropyl)sulfonyl]carbamoyl}-5,16-dioxo-1,1′,2′,5,6,7,8,9,10,11,13a,14,14a,15,16,16a-hexadecahydrospiro[cyclopropa[e]pyrrolo[1,2-a][1,4]diazacyclopentadecine-2,3′-pyrano[2,3-c]quinolin]-6-yl]carbamate], the EC50 in experiment [1] (genotype 1b replicon, K+ salt) was found to be 1.63 nM. Besides, the IC50 in experiment [2] (setting [4]) turned out to be 0.008 nM.
Turning to `Cc1nc2ccccc2c2c1O[C@@]1(C[C@H]3C(=O)N[C@]4(C(=O)NS(=O)(=O)C5(C)CC5)C[C@H]4/C=C\CCCCC[C@H](NC(=O)OC(C)(C)C)C(=O)N3C1)CC2(F)F` [Example 25, tert-Butyl (2S,6S,13aS,14aR,16aS,Z)-1′,1′-difluoro-5′-methyl-14a-(1-methylcyclopropylsulfonylcarbamoyl)-5,16-dioxo-1′,2′,3,5,6,7,8,9,10,11,13a,14,14a,15,16,16a-hexadecahydro-1H-spiro[cyclopropa[e]pyrrolo[1,2-a][1,4]diazacyclopentadecine-2,3′-pyrano[2,3-c]quinoline]-6-ylcarbamate], in experiment [1] (genotype 1b replicon), the EC50 came out at 1.11 nM. The IC50 in experiment [2] (setting [3]) came to 0.016 nM.
Regarding `CCc1nc2ccc(OC)cc2c2c1O[C@]1(CC2)C[C@H]2C(=O)N[C@]3(C(=O)NS(=O)(=O)C4(C)CC4)C[C@H]3/C=C\CCCCC[C@H](NC(=O)c3cc[nH]n3)C(=O)N2C1` [Example 469, (2R,6S,12Z,13aS,14aR,16aS)-5′-ethyl-9′-methoxy-N-[(1-methylcyclopropyl)sulfonyl]-5,16-dioxo-6-[(1H-pyrazol-3-ylcarbonyl)amino]-1,1′,2′,6,7,8,9,10,11,13a,14,15,16,16a-tetradecahydrospiro[cyclopropa[e]pyrrolo[1,2-a][1,4]diazacyclopentadecine-2,3′-pyrano[2,3-c]quinoline]-14a(5H)-carboxamide], the EC50 in experiment [1] (HCV replicon, genotype 1b) amounted to 48.8 nM. In experiment [2] (setting [5]), this compound displayed an IC50 of 0.016 nM.
On to `CC(C)(C)OC(=O)N[C@H]1CCCCC/C=C\[C@@H]2C[C@@]2(C(=O)NS(=O)(=O)C2(C)CC2)NC(=O)[C@@H]2C[C@]3(CCc4c(ccc5ccccc45)O3)CN2C1=O` [Example 73, tert-butyl [(3R,6′S,12′Z,13a′S,14a′R,16a′S)-14a′-{[(1-methylcyclopropyl)sulfonyl]carbamoyl}-5′,16′-dioxo-1,1′,2,5′,6′,7′,8′,9′,10′,11′,13a′,14′,14a′,15′,16′,16a′-hexadecahydrospiro[benzo[f]chromene-3,2′-cyclopropa[e]pyrrolo[1,2-a][1,4]diazacyclopentadecin]-6′-yl]carbamate], for which, in experiment [1] (genotype 1b replicon), the EC50 was 1.71 nM. Besides, 0.12 nM corresponded to half-maximal inhibition in experiment [2] (setting [3]) (IC50).
For `COc1ccc2nc(C)c3c(c2c1)CC[C@]1(C[C@H]2C(=O)N[C@]4(C(=O)NS(=O)(=O)C5(C)CC5)C[C@H]4/C=C\CCCCC[C@H](NC(=O)OC(C)(C)C(F)(F)F)C(=O)N2C1)O3` [Example 254, 1,1,1-trifluoro-2-methylpropan-2-yl [(2R,6S,12Z,13aS,14aR,16aS)-9′-methoxy-5′-methyl-14a-{[(1-methylcyclopropyl)sulfonyl]carbamoyl}-5,16-dioxo-1,1′,2′,5,6,7,8,9,10,11,13a,14,14a,15,16,16a-hexadecahydrospiro[cyclopropa[e]pyrrolo[1,2-a][1,4]diazacyclopentadecine-2,3′-pyrano[2,3-c]quinolin]-6-yl]carbamate], the EC50 in experiment [1] (genotype 1b replicon, K+ salt) came out at 1.58 nM. In addition, in experiment [2] (setting [4]), the IC50 worked out at 0.01 nM.
As to `COc1ccc2nc(C(C)C)c3c(c2c1)CC[C@]1(C[C@H]2C(=O)N[C@]4(C(=O)NS(=O)(=O)C5(C)CC5)C[C@H]4/C=C\CCCCC[C@H](NC(=O)OCC(C)C)C(=O)N2C1)O3` [Example 154, 2-methylpropyl [(2R,6S,12Z,13aS,14aR,16aS)-9′-methoxy-14a-{[(1-methylcyclopropyl)sulfonyl]carbamoyl}-5,16-dioxo-5′-(propan-2-yl)-1,1′,2′,5,6,7,8,9,10,11,13a,14,14a,15,16,16a-hexadecahydrospiro[cyclopropa[e]pyrrolo[1,2-a][1,4]diazacyclopentadecine-2,3′-pyrano[2,3-c]quinolin]-6-yl]carbamate], the EC50 in experiment [1] (genotype 1b replicon) was 1 nM. This compound also had an IC50 in experiment [2] (setting [3]) of 0.014 nM.
In the case of `CC(C)(C)COC(=O)N[C@H]1CCCCC/C=C\[C@@H]2C[C@@]2(C(=O)NS(=O)(=O)C2(C)CC2)NC(=O)[C@@H]2C[C@]3(CCc4c(c(C(F)F)nc5ccccc45)O3)CN2C1=O` [Example 311, 2,2-dimethylpropyl [(2R,6S,12Z,13aS,14aR,16aS)-5′-(difluoromethyl)-14a-{[(1-methylcyclopropyl)sulfonyl]carbamoyl}-5,16-dioxo-1,1′,2′,5,6,7,8,9,10,11,13a,14,14a,15,16,16a-hexadecahydrospiro[cyclopropa[e]pyrrolo[1,2-a][1,4]diazacyclopentadecine-2,3′-pyrano[2,3-c]quinolin]-6-yl]carbamate], the EC50 in experiment [1] (genotype 1b replicon) came out at 1.23 nM. The IC50 in experiment [2] (setting [3]) amounted to 0.008 nM.
For `Cc1nc2ccc(OC(F)(F)F)cc2c2c1O[C@]1(CC2)C[C@H]2C(=O)N[C@]3(C(=O)NS(=O)(=O)C4(C)CC4)C[C@H]3/C=C\CCCCC[C@H](NC(=O)OC3(C)CCC3)C(=O)N2C1` [Example 174, 1-methylcyclobutyl [(2R,6S,12Z,13aS,14aR,16aS)-5′-methyl-14a-{[(1-methylcyclopropyl)sulfonyl]carbamoyl}-5,16-dioxo-9′-(trifluoromethoxy)-1,1′,2′,5,6,7,8,9,10,11,13a,14,14a,15,16,16a-hexadecahydrospiro[cyclopropa[e]pyrrolo[1,2-a][1,4]diazacyclopentadecine-2,3′-pyrano[2,3-c]quinolin]-6-yl]carbamate] the same measures were 2.33 nM and 0.007 nM.
For `Cc1nc2ccccc2c2c1O[C@]1(CC2)C[C@H]2C(=O)N[C@]3(C(=O)NS(=O)(=O)C4(C)CC4)C[C@H]3/C=C\CCCCC[C@H](NC(=O)OC3CCC(F)(F)CC3)C(=O)N2C1` [Example 196, 4,4-difluorocyclohexyl [(2R,6S,12Z,13aS,14aR,16aS)-5′-methyl-14a-{[(1-methylcyclopropyl)sulfonyl]carbamoyl}-5,16-dioxo-1,1′,2′,5,6,7,8,9,10,11,13a,14,14a,15,16,16a-hexadecahydrospiro[cyclopropa[e]pyrrolo[1,2-a][1,4]diazacyclopentadecine-2,3′-pyrano[2,3-c]quinolin]-6-yl]carbamate], the EC50 in experiment [1] (genotype 1b replicon) came to 5.53 nM. In addition, the half-maximal inhibitory concentration (IC50) in experiment [2] (setting [3]) worked out at 0.003 nM.
For the compound `COc1ccc2nc(C(F)(F)F)c3c(c2c1)CC[C@]1(C[C@H]2C(=O)N[C@]4(C(=O)NS(=O)(=O)C5(C)CC5)C[C@H]4/C=C\CCCCC[C@H](NC(=O)O[C@@H](C)C(C)C)C(=O)N2C1)O3` [Example 351, (2S)-3-methylbutan-2-yl [(2R,6S,12Z,13aS,14aR,16aS)-9′-methoxy-14a-{[(1-methylcyclopropyl)sulfonyl]carbamoyl}-5,16-dioxo-5′-(trifluoromethyl)-1,1′,2′,5,6,7,8,9,10,11,13a,14,14a,15,16,16a-hexadecahydrospiro[cyclopropa[e]pyrrolo[1,2-a][1,4]diazacyclopentadecine-2,3′-pyrano[2,3-c]quinolin]-6-yl]carbamate], the EC50 in experiment [1] (genotype 1b replicon, K+ salt) was determined as 2.19 nM. In addition, in experiment [2] (setting [4]), the IC50 was 0.029 nM.
For `COc1ccc2nc(C)c3c(c2n1)CC[C@]1(C[C@H]2C(=O)N[C@]4(C(=O)NS(=O)(=O)C5(C)CC5)C[C@H]4/C=C\CCCCC[C@H](NC(=O)OC4(C)CCC4)C(=O)N2C1)O3` [Example 365, 1-methylcyclobutyl [(2R,6S,12Z,13aS,14aR,16aS)-2′-methoxy-6′-methyl-14a-{[(1-methylcyclopropyl)sulfonyl]carbamoyl}-5,16-dioxo-1,5,6,7,8,9,9′,10,10′,11,13a,14,14a,15,16,16a-hexadecahydrospiro[cyclopropa[e]pyrrolo[1,2-a][1,4]diazacyclopentadecine-2,8′-pyrano[2,3-c][1,5]naphthyridin]-6-yl]carbamate], the EC50 in experiment [1] (HCV replicon, genotype 1b) stood at 4.93 nM. The compound also came in with an IC50 in experiment [2] (setting [5]) of 0.02 nM.

(Values after patent publication US8987195B2 (priority 2012, dated 2015).)
